Results reported in patent publication EP4775208A1, “USE OF PRMT5 INHIBITOR IN TREATMENT OF TUMORS OR CANCERS” (Apeiron Therapeutics (Hong Kong) Ltd., priority 2023, dated 2025).

Experiments:
[1] = tested on: HCT-116 MTAP wild-type cells; experiment: Inhibition of proliferation of HCT-116 MTAP wild-type cells (Cell-Titer Glo); format: cell-based; conditions: 8 days
Description: Test 2: Compound's inhibitory activity on proliferation of HCT-116 MTAP wild-type cells.
Materials and Cells: HCT-116 MTAP wild-type cells obtained from Kyinno Bio (China); RPMI-1640 medium, fetal bovine serum, and penicillin-streptomycin purchased from Thermo Fisher Scientific (America); 384-well plates from PerkinElmer (America); Cell-Titer Glo assay kit from Promega (America).
Cell Culture: HCT116 MTAP wild-type cells were cultured in RPMI 1640 medium containing 10% fetal bovine serum and 1% penicillin-streptomycin at 37°C, 5% CO2. Only cells in logarithmic growth phase were used for experiments.
(§1) Cell Proliferation Inhibition Assay: The compound's inhibitory activity on HCT-116 MTAP wild-type cells was assessed using the Cell-Titer Glo assay kit. Adjusting cell concentration, 40 µL was seeded into a 384-well plate and cultured overnight at 37°C, 5% CO2. Each well received 40 nL of the compound, achieving concentrations from 0 to 10,000 nM (starting concentration 10,000 nM, 3-fold dilution, 10 points), with 0.1% DMSO. The cell plate was incubated for 8 days at 37°C, 5% CO2. Cell-Titer Glo reagent (40 µL) was added to measure cell viability.

[2] = tested on: HCT-116 MTAP(-/-) deficient cells; experiment: Inhibition of proliferation of HCT-116 MTAP(-/-) deficient cells (Cell-Titer Glo); format: cell-based; conditions: 8 days
Description: Test 1: Compound's inhibitory activity on proliferation of HCT-116 MTAP(-/-) deficient cells.
Materials and Cells: HCT-116 MTAP(-/-) deficient cells obtained from Kyinno Bio (China); RPMI-1640 medium, fetal bovine serum, and penicillin-streptomycin purchased from Thermo Fisher Scientific (America); 384-well plates from PerkinElmer (America); Cell-Titer Glo assay kit from Promega (America).
Cell Culture: HCT116 MTAP(-/-) deficient cells were cultured in RPMI 1640 medium containing 10% fetal bovine serum and 1% penicillin-streptomycin at 37°C, 5% CO2. Only cells in logarithmic growth phase were used for experiments.
as §1, with “MTAP(-/-) deficient” for “MTAP wild-type”

Molecule	IC50 [1]	IC50 [2]	IC50 ([1]; Homo sapiens, HCT-116, 192 h)	IC50 ([2]; Homo sapiens, HCT-116, 192 h)
4-amino-N-methyl-N-(8-(trifluoromethyl)-1, 3,4,5-tetrahydrobenzo [c]oxepin-5-yl)imidaz o[1,5-a]quinoxaline-8 -carboxamide [Example 44]	> 10000 nM	310 nM	–	–
4-amino-N-methyl-N-((1S,4S)-1-methyl-7-( trifluoromethyl)isochr oman-4-yl)imidazo[1, 5-a]quinoxaline-8-car boxamide [Example 105]	2190 nM	66.1 nM	–	–
Nc1nc2ccc(C(=O)N(C3CC3)[C@@H]3COc4cc(C(F)(F)F)ccc43)cc2n2cncc12 (single isomer, unassigned) [Example 84]	–	–	1470 nM	21.9 nM
Cc1ncn2c1c(N)nc1ccc(C(=O)N(C3CC3)[C@H]3COc4cc(C(F)(F)F)ccc43)cc12 (single isomer, unassigned) [Example 85]	–	–	781 nM	791 nM
Cc1ncn2c1c(N)nc1ccc(C(=O)N(C3CC3)[C@@H]3COc4cc(C(F)(F)F)ccc43)cc12 (single isomer, unassigned) [Example 86]	–	–	1330 nM	61.1 nM
CN(C(=O)c1ccc2nc(N)c3cncn3c2c1)[C@H]1COCc2ccc(C(F)(F)F)cc21 (single isomer, unassigned) [Example 93]	–	–	> 10000 nM	> 3000 nM
CN(C(=O)c1ccc2nc(N)c3cncn3c2c1)[C@@H]1COCc2ccc(C(F)(F)F)cc21 (single isomer, unassigned) [Example 94]	–	–	5170 nM	80.8 nM
C[C@@H]1OC[C@@H](N(C)C(=O)c2ccc3nc(N)c4cncn4c3c2)c2ccc(F)cc21 (single isomer, unassigned) [Example 95]	–	–	> 10000 nM	211 nM
C[C@@H]1OC[C@@H](N(C)C(=O)c2cc3c(cn2)nc(N)c2cncn23)c2ccc(C(F)(F)F)cc21 (single isomer, unassigned) [Example 97]	–	–	1550 nM	29.8 nM
C[C@@H]1OC[C@@H](N(C)C(=O)c2ccc3nc(N)c4cncn4c3c2)c2cc(F)ccc21 (single isomer, unassigned) [Example 99]	–	–	7130 nM	928 nM
C[C@H]1OC[C@@H](N(C)C(=O)c2ccc3nc(N)c4cncn4c3c2)c2cc(F)ccc21 (single isomer, unassigned) [Example 100]	–	–	3580 nM	68.3 nM
CN(C(=O)c1ccc2nc(N)c3cncn3c2c1)[C@H]1CSc2cc(C(F)(F)F)ccc21 (single isomer, unassigned) [Example 101]	–	–	> 10000 nM	2190 nM
CN(C(=O)c1ccc2nc(N)c3cncn3c2c1)[C@@H]1CSc2cc(C(F)(F)F)ccc21 (single isomer, unassigned) [Example 102]	–	–	1990 nM	7.9 nM
CN(C(=O)c1cc2c(cc1F)nc(N)c1cncn12)[C@H]1COC(C)(C)c2cc(C(F)(F)F)ccc21 (single isomer, unassigned) [Example 134]	–	–	5890 nM	623 nM
CN(C(=O)c1cc2c(cc1F)nc(N)c1cncn12)[C@@H]1COC(C)(C)c2cc(C(F)(F)F)ccc21 (single isomer, unassigned) [Example 135]	–	–	1960 nM	9.3 nM
CN(C(=O)c1ccc2nc(N)c3cncn3c2c1)C1COc2ccccc21 (centres unmarked) [Example 1, 4-amino-N-(2,3-dihydrobenzofuran-3-yl)-N-methylimidazo[1,5-a]quinoxaline-8-carboxamide]	–	–	> 10000 nM	2310 nM

Molecule	IC50 [1]	IC50 [2]	IC50 ([1]; Homo sapiens, HCT-116, 192 h)	IC50 ([2]; Homo sapiens, HCT-116, 192 h)
CN(C(=O)c1ccc2nc(N)c3cncn3c2c1)[C@@H]1COc2cc(-c3cnn(C)c3)ccc21 [Example 2, (S)-4-amino-N-methy 1-N-(6-(1-methyl-1H-pyrazol-4-yl)-2,3-dihydrobenzofuran-3-yl)i midazo[1,5-a]quinoxa line-8-carboxamide]	–	–	6670 nM	61 nM
CN(C(=O)c1ccc2nc(N)c3cncn3c2c1)[C@@H]1COc2cc(Br)ccc21 [Example 3, (S)-4-amino-N-(6-bromo-2,3-dihydrobenzof uran-3-yl)-N-methyli midazo[1,5-a]quinoxaline-8-carboxamide]	–	–	2250 nM	23.4 nM
CC1OC[C@@H](N(C)C(=O)c2ccc3nc(N)c4cncn4c3c2)c2ccc(C(F)(F)F)cc21 (stereo partly drawn) [Example 5, 4-amino-N-methyl-N-((4S)-1-methyl-7-(trifluoromethyl)isochroman-4-yl)imidazo[1,5-a]quinoxaline-8-carbox amide]	–	–	280 nM	4 nM
Cc1ncn2c1c(N)nc1ccc(C(=O)N(C)[C@@H]3COc4cc(C(F)(F)F)ccc43)cc12 [Example 6, (S)-4-amino-N,3-dime thyl-N-(6-(trifluoromethyl)-2,3-dihydrobenzofuran-3-yl)imidazo[1 ,5-a]quinoxaline-8-car boxamide]	–	–	993 nM	10.6 nM
CN(C(=O)c1ccc2nc(N)c3cncn3c2c1)C1COc2nc(C(F)(F)F)ccc21 (centres unmarked) [Example 7, 4-amino-N-methyl-N-(6-(trifluoromethyl)-2,3-dihydrofuro[2,3-b]pyridin-3-yl)imidazo[1,5-a]quinoxaline-8-car boxamide]	–	–	> 10000 nM	141 nM
CN(C(=O)c1ccc2nc(N)c3cncn3c2c1)C1COCc2ccc(C(F)(F)F)cc21 (centres unmarked) [Example 8, 4-amino-N-methyl-N-(6-(trifluoromethyl)isochroman-4-yl)imidaz o[1,5-a]quinoxaline-8-carboxamide]	–	–	6480 nM	106 nM
CC1OC[C@@H](N(C)C(=O)c2ccc3nc(N)c4cncn4c3c2)c2ccc(F)cc21 (stereo partly drawn) [Example 9, 4-amino-N-((4S)-7-fluoro-1-methylisochroman-4-yl)-N-methyli midazo[1,5-a]quinoxa line-8-carboxamide]	–	–	2140 nM	41.1 nM
CN(C(=O)c1ccc2nc(N)c3cncn3c2c1)[C@@H]1COc2cc(C#N)ccc21 [Example 10, (S)-4-amino-N-(6-cyano-2,3-dihydrobenzof uran-3-yl)-N-methyli midazo[1,5-a]quinoxa line-8-carboxamide]	–	–	3110 nM	31.2 nM
CN(C(=O)c1ccc2nc(N)c3cc(F)cn3c2c1)[C@@H]1COc2cc(Br)ccc21 [Example 11, (S)-4-amino-N-(6-bromo-2,3-dihydrobenzof uran-3-yl)-2-fluoro-N -methylpyrrolo[1,2-a] quinoxaline-8-carbox amide]	–	–	6410 nM	1770 nM
CN(C(=O)c1cc2c(cc1Cl)nc(N)c1cncn12)[C@@H]1COc2cc(Br)ccc21 [Example 12, (S)-4-amino-N-(6-bromo-2,3-dihydrobenzof uran-3-yl)-7-chloro-N -methylimidazo[1,5-a] quinoxaline-8-carbox amide]	–	–	1110 nM	6.1 nM
CN(C(=O)c1cc2c(cc1F)nc(N)c1cncn12)C1COC(C)(C)c2cc(C(F)(F)F)ccc21 (centres unmarked) [Example 13, 4-amino-N-(1,1-dimethyl-7-(trifluoromethyl)isochroman-4-yl)-7-f luoro-N-methylimidaz o[1,5-a]quinoxaline-8-carboxamide]	–	–	2510 nM	15.7 nM
CC1OC[C@@H](N(C)C(=O)c2cc3c(cn2)nc(N)c2cncn23)c2ccc(Br)cc21 (stereo partly drawn) [Example 17, 4-amino-N-((4S)-7-bromo-1-methylisochroman-4-yl)-N-methyli midazo[1,5-a]pyrido[3,4-e]pyrazine-8-carb oxamide]	–	–	243 nM	4.2 nM
CN(C(=O)c1ccc2nc(N)c3cncn3c2c1)[C@@H]1CCc2cc(C(F)(F)F)ccc21 [Example 18, (R)-4-amino-N-methy 1-N-(5-(trifluoromethy 1)-2,3-dihydro-1H-inden-1-yl)imidazo[1,5-a]quinoxaline-8-carbox amide]	–	–	4330 nM	14.5 nM
CC1OC[C@@H](N(C)C(=O)c2ccc3nc(N)c4cncn4c3c2)c2cc(C(F)(F)F)ccc21 (stereo partly drawn) [Example 19, 4-amino-N-methyl-N-((4S)-1-methyl-6-(trifluoromethyl)isochroman-4-yl)imidazo[1,5-a]quinoxaline-8-carbox amide]	–	–	2230 nM	23.2 nM
CN(C(=O)c1ccc2nc(N)c3cncn3c2c1)[C@@H]1COc2cc(P(C)(C)=O)ccc21 [Example 20, (S)-4-amino-N-(6-(dimethylphosphoryl)-2,3-dihydrobenzofuran-3-yl)-N-methylimidaz o[1,5-a]quinoxaline-8-carboxamide]	–	–	> 10000 nM	> 3000 nM
